In patent US11000033B2, “Ketone or oxime compound, and herbicide” (NISSAN CHEMICAL CORPORATION, priority 2014, dated 2021):

Tests used:
Type in all cases: in vivo
Lolium multiflorum Lam. [1] = assay: Test Example 4: herbicidal effect by soil treatment (symbol K); settings: for Herbicidal effect grade, K: Lolium multiflorum Lam.: application herbicide amount 320 g/ha; for K: Lolium multiflorum Lam., herbicidal effect grade: 320 g/ha
Method in brief: (§1)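 Seeds were sown in sterilized diluvial soil, covered with about 1.5 cm of soil, and the soil surface was sprayed with a water-diluted emulsion of the compound at a predetermined rate. Plants grew in a greenhouse at 25° C. to 30° C.; effects were scored visually 3 weeks after application.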

Veronica persica [2] = assay: Test Example 4: herbicidal effect by soil treatment (symbol R); settings: for Herbicidal effect grade, R: Veronica persica: application herbicide amount 320 g/ha; for R: Veronica persica, herbicidal effect grade: 320 g/ha
Method in brief: as §1

Amaranthus retroflexus = assay: Test Example 5: herbicidal effect by foliage application, plastic box (symbol N); settings: 320 g/ha, 3 weeks after application
Method in brief: (§2)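 Effect is rated 3 weeks after a foliar spray of water-diluted emulsion concentrate at a predetermined herbicide amount. Plants had grown 14 days in a 25° C. to 30° C. greenhouse from seed in sterilized diluvial soil.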

corn = assay: Test Example 4: effect on crop by soil treatment (symbol c); settings: for Effect on crop grade, c: corn: application herbicide amount 320 g/ha; for c: corn, effect grade on crop: 320 g/ha
Method in brief: (§3)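 Grown at 25° C. to 30° C. in a greenhouse, the crops came from seed sown spot-wise in sterilized diluvial soil under roughly 1.5 cm of covering soil.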

Setaria viridis [3] = assay: Test Example 5: herbicidal effect by foliage application, plastic box (symbol G); settings: 320 g/ha, 3 weeks after application
Method in brief: as §2

Lolium multiflorum Lam. [4] = assay: Test Example 5: herbicidal effect by foliage application, plastic box (symbol K); settings: 320 g/ha, 3 weeks after application
Method in brief: as §2

Apera spica-venti = assay: Test Example 4: herbicidal effect by soil treatment (symbol L); settings: for Herbicidal effect grade, L: Apera spica-venti: application herbicide amount 320 g/ha; for L: Apera spica-venti, herbicidal effect grade: 320 g/ha
Method in brief: as §1

wheat = assay: Test Example 4: effect on crop by soil treatment (symbol e); settings: for Effect on crop grade, e: wheat: application herbicide amount 320 g/ha; for e: wheat, effect grade on crop: 320 g/ha
Method in brief: as §3

Setaria viridis [5] = assay: Test Example 4: herbicidal effect by soil treatment (symbol G); settings: for Herbicidal effect grade, G: Setaria viridis: application herbicide amount 320 g/ha; for G: Setaria viridis, herbicidal effect grade: 320 g/ha
Method in brief: as §1

soybean [6] = assay: Test Example 4: effect on crop by soil treatment (symbol d); settings: for Effect on crop grade, d: soybean: application herbicide amount 320 g/ha; for d: soybean, effect grade on crop: 320 g/ha
Method in brief: as §3

Cyperus difformis = assay: Test Example 3: herbicidal effect by foliage application, Wagner pot (symbol E); settings: application herbicide amount 320 g/ha, Table 24
Method in brief: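 Herbicidal activity was rated three weeks after a foliar spray of diluted emulsion concentrate, applied at a predetermined dose to plants grown for 14 days from seed in waterlogged alluvial soil within a 25–30 °C greenhouse.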

Veronica persica [7] = assay: Test Example 5: herbicidal effect by foliage application, plastic box (symbol R); settings: 320 g/ha, 3 weeks after application
Method in brief: as §2

rice = assay: Test Example 4: effect on crop by soil treatment (symbol b); settings: for Effect on crop grade, b: directly sowed rice plant: application herbicide amount 320 g/ha; for b: directly sowed rice plant, effect grade on crop: 320 g/ha
Method in brief: as §3

Alopecurus myosuroides [8] = assay: Test Example 4: herbicidal effect by soil treatment (symbol J); settings: for Herbicidal effect grade, J: Alopecurus myosuroides: application herbicide amount 320 g/ha; for J: Alopecurus myosuroides, herbicidal effect grade: 320 g/ha
Method in brief: as §1

[9] = system: Echinochloa oryzacola Vasing.; assay: Test Example 1: herbicidal activity, application before weed generation in submerged conditions (symbol A); settings: application herbicide amount 320 g/ha
Method in brief: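 Paddy pre-emergence test. Formulated emulsion, water-diluted to a predetermined rate, is applied to floodwater on sowing day; rice transplanted at 2.5 leaves. Effect read at 3 weeks on a 0–5 herbicidal-ratio scale.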

Avena fatua = assay: Test Example 5: herbicidal effect by foliage application, plastic box (symbol I); settings: 320 g/ha, 3 weeks after application
Method in brief: as §2

Alopecurus myosuroides [10] = assay: Test Example 5: herbicidal effect by foliage application, plastic box (symbol J); settings: 320 g/ha, 3 weeks after application
Method in brief: as §2

soybean [11] = assay: Test Example 5: effect on crop by foliage application, plastic box (symbol d); settings: 320 g/ha, 3 weeks after application
Method in brief: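 Soil: sterilized diluvial. Container: plastic box, 21 × 13 cm, 7 cm deep. Sowing: spot-like, ~1.5 cm cover. Growth: greenhouse, 25° C. to 30° C.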

Galium spurium = assay: Test Example 4: herbicidal effect by soil treatment (symbol Q); settings: for Herbicidal effect grade, Q: Galium spurium: application herbicide amount 320 g/ha; for Q: Galium spurium, herbicidal effect grade: 320 g/ha
Method in brief: as §1

## CON=C(C)CC1C(O)=C(c2c(C)cc(C)cc2C)C(=O)C1C (mixture of isomers) [12-002]
Lolium multiflorum Lam. [1]
  Herbicidal effect grade, K: Lolium multiflorum Lam.: 5 (Herbicidal ratio of 90% or more (almost completely withered))
Veronica persica [2]
  Herbicidal effect grade, R: Veronica persica: 0 (Herbicidal ratio of 5% or lower (almost no effect))
Amaranthus retroflexus
  N: Amaranthus retroflexus, herbicidal effect grade: 0 (Herbicidal ratio of 5% or lower (almost no effect))
corn
  Effect on crop grade, c: corn: 3 (Herbicidal ratio of 40% or higher and lower than 70%)
Setaria viridis [3]
  G: Setaria viridis, herbicidal effect grade: 5 (Herbicidal ratio of 90% or more (almost completely withered))
Lolium multiflorum Lam. [4]
  K: Lolium multiflorum Lam., herbicidal effect grade: 5 (Herbicidal ratio of 90% or more (almost completely withered))
Apera spica-venti
  Herbicidal effect grade, L: Apera spica-venti: 3 (Herbicidal ratio of 40% or higher and lower than 70%)
wheat
  Effect on crop grade, e: wheat: 0 (Herbicidal ratio of 5% or lower (almost no effect))
Setaria viridis [5]
  Herbicidal effect grade, G: Setaria viridis: 5 (Herbicidal ratio of 90% or more (almost completely withered))
Soybean [6]
  Effect on crop grade, d: soybean: 0 (Herbicidal ratio of 5% or lower (almost no effect))
Cyperus difformis
  E herbicidal effect grade: 5 (Herbicidal ratio of 90% or more (almost completely withered))
Veronica persica [7]
  R: Veronica persica, herbicidal effect grade: 4 (Herbicidal ratio of 70% or higher and lower than 90%)
rice
  Effect on crop grade, b: directly sowed rice plant: 4 (Herbicidal ratio of 70% or higher and lower than 90%)
Alopecurus myosuroides [8]
  Herbicidal effect grade, J: Alopecurus myosuroides: 4 (Herbicidal ratio of 70% or higher and lower than 90%)
[9]
  A (Echinochloa oryzacola Vasing.) herbicidal effect grade: 5 (Herbicidal ratio of 90% or more (almost completely withered))
Avena fatua
  I: Avena fatua, herbicidal effect grade: 5 (Herbicidal ratio of 90% or more (almost completely withered))
Alopecurus myosuroides [10]
  J: Alopecurus myosuroides, herbicidal effect grade: 5 (Herbicidal ratio of 90% or more (almost completely withered))
Soybean [11]
  d: soybean, effect on crop grade: 1 (Herbicidal ratio of 5% or higher and lower than 20%)
Galium spurium
  Herbicidal effect grade, Q: Galium spurium: 0 (Herbicidal ratio of 5% or lower (almost no effect))

## CC(CC1CC(O)=C(c2c(C)cc(C)cc2C)C1=O)=NOCc1ccccc1Cl (stereo not shown) [1-113]
Lolium multiflorum Lam. [1]
  K: Lolium multiflorum Lam., herbicidal effect grade: 5 (Herbicidal ratio of 90% or more (almost completely withered))
Veronica persica [2]
  R: Veronica persica, herbicidal effect grade: 0 (Herbicidal ratio of 5% or lower (almost no effect))
Amaranthus retroflexus
  N: Amaranthus retroflexus, herbicidal effect (criteria 0-5): 0 (Herbicidal ratio of 5% or lower (almost no effect))
corn
  c: corn, effect grade on crop: 0 (Herbicidal ratio of 5% or lower (almost no effect))
Setaria viridis [3]
  G: Setaria viridis, herbicidal effect (criteria 0-5): 4 (Herbicidal ratio of 70% or higher and lower than 90%)
Lolium multiflorum Lam. [4]
  K: Lolium multiflorum Lam., herbicidal effect (criteria 0-5): 5 (Herbicidal ratio of 90% or more (almost completely withered))
Apera spica-venti
  L: Apera spica-venti, herbicidal effect grade: 5 (Herbicidal ratio of 90% or more (almost completely withered))
wheat
  e: wheat, effect grade on crop: 0 (Herbicidal ratio of 5% or lower (almost no effect))
Setaria viridis [5]
  G: Setaria viridis, herbicidal effect grade: 0 (Herbicidal ratio of 5% or lower (almost no effect))
Soybean [6]
  d: soybean, effect grade on crop: 0 (Herbicidal ratio of 5% or lower (almost no effect))
Veronica persica [7]
  R: Veronica persica, herbicidal effect (criteria 0-5): 4 (Herbicidal ratio of 70% or higher and lower than 90%)
rice
  b: directly sowed rice plant, effect grade on crop: 2 (Herbicidal ratio of 20% or higher and lower than 40%)
Alopecurus myosuroides [8]
  J: Alopecurus myosuroides, herbicidal effect grade: 3 (Herbicidal ratio of 40% or higher and lower than 70%)
[9]
  Herbicidal effect grade, A: Echinochloa oryzacola Vasing.: 5 (Herbicidal ratio of 90% or more (almost completely withered))
Avena fatua
  I: Avena fatua, herbicidal effect (criteria 0-5): 4 (Herbicidal ratio of 70% or higher and lower than 90%)
Alopecurus myosuroides [10]
  J: Alopecurus myosuroides, herbicidal effect (criteria 0-5): 4 (Herbicidal ratio of 70% or higher and lower than 90%)
Soybean [11]
  d: soybean, effect on crop (criteria 0-5): 0 (Herbicidal ratio of 5% or lower (almost no effect))
Galium spurium
  Q: Galium spurium, herbicidal effect grade: 0 (Herbicidal ratio of 5% or lower (almost no effect))

## CCC(Oc1ccc2ncc(Br)cc2c1)C(=O)OC1=C(c2c(C)cc(C)cc2C)C(=O)C(CC(C)=NOC)C1 (stereo not shown) [1-140]
Lolium multiflorum Lam. [1]
  K: Lolium multiflorum Lam., herbicidal effect grade: 5 (Herbicidal ratio of 90% or more (almost completely withered))
Veronica persica [2]
  R: Veronica persica, herbicidal effect grade: 0 (Herbicidal ratio of 5% or lower (almost no effect))
Amaranthus retroflexus
  N: Amaranthus retroflexus, herbicidal effect (criteria 0-5): 3 (Herbicidal ratio of 40% or higher and lower than 70%)
corn
  c: corn, effect grade on crop: 4 (Herbicidal ratio of 70% or higher and lower than 90%)
Setaria viridis [3]
  G: Setaria viridis, herbicidal effect (criteria 0-5): 5 (Herbicidal ratio of 90% or more (almost completely withered))
Lolium multiflorum Lam. [4]
  K: Lolium multiflorum Lam., herbicidal effect (criteria 0-5): 5 (Herbicidal ratio of 90% or more (almost completely withered))
Apera spica-venti
  L: Apera spica-venti, herbicidal effect grade: 5 (Herbicidal ratio of 90% or more (almost completely withered))
wheat
  e: wheat, effect grade on crop: 5 (Herbicidal ratio of 90% or more (almost completely withered))
Setaria viridis [5]
  G: Setaria viridis, herbicidal effect grade: 5 (Herbicidal ratio of 90% or more (almost completely withered))
Soybean [6]
  d: soybean, effect grade on crop: 1 (Herbicidal ratio of 5% or higher and lower than 20%)
Veronica persica [7]
  R: Veronica persica, herbicidal effect (criteria 0-5): 3 (Herbicidal ratio of 40% or higher and lower than 70%)
rice
  b: directly sowed rice plant, effect grade on crop: 5 (Herbicidal ratio of 90% or more (almost completely withered))
Alopecurus myosuroides [8]
  J: Alopecurus myosuroides, herbicidal effect grade: 5 (Herbicidal ratio of 90% or more (almost completely withered))
[9]
  Herbicidal effect grade, A: Echinochloa oryzacola Vasing.: 5 (Herbicidal ratio of 90% or more (almost completely withered))
Avena fatua
  I: Avena fatua, herbicidal effect (criteria 0-5): 5 (Herbicidal ratio of 90% or more (almost completely withered))
Alopecurus myosuroides [10]
  J: Alopecurus myosuroides, herbicidal effect (criteria 0-5): 5 (Herbicidal ratio of 90% or more (almost completely withered))
Soybean [11]
  d: soybean, effect on crop (criteria 0-5): 3 (Herbicidal ratio of 40% or higher and lower than 70%)
Galium spurium
  Q: Galium spurium, herbicidal effect grade: 0 (Herbicidal ratio of 5% or lower (almost no effect))

## CON=C(CC1CC(O)=C(c2c(C)cc(-c3ccccc3)cc2C)C1=O)C1CC1 (mixture of isomers) [9-028]
Lolium multiflorum Lam. [1]
  Herbicidal effect grade, K: Lolium multiflorum Lam.: 5 (Herbicidal ratio of 90% or more (almost completely withered))
Veronica persica [2]
  Herbicidal effect grade, R: Veronica persica: 0 (Herbicidal ratio of 5% or lower (almost no effect))
Amaranthus retroflexus
  N: Amaranthus retroflexus, herbicidal effect grade: 1 (Herbicidal ratio of 5% or higher and lower than 20%)
corn
  Effect on crop grade, c: corn: 1 (Herbicidal ratio of 5% or higher and lower than 20%)
Setaria viridis [3]
  G: Setaria viridis, herbicidal effect grade: 5 (Herbicidal ratio of 90% or more (almost completely withered))
Lolium multiflorum Lam. [4]
  K: Lolium multiflorum Lam., herbicidal effect grade: 5 (Herbicidal ratio of 90% or more (almost completely withered))
Apera spica-venti
  Herbicidal effect grade, L: Apera spica-venti: 5 (Herbicidal ratio of 90% or more (almost completely withered))
wheat
  Effect on crop grade, e: wheat: 3 (Herbicidal ratio of 40% or higher and lower than 70%)
Setaria viridis [5]
  Herbicidal effect grade, G: Setaria viridis: 5 (Herbicidal ratio of 90% or more (almost completely withered))
Soybean [6]
  Effect on crop grade, d: soybean: 0 (Herbicidal ratio of 5% or lower (almost no effect))
Veronica persica [7]
  R: Veronica persica, herbicidal effect grade: 4 (Herbicidal ratio of 70% or higher and lower than 90%)
rice
  Effect on crop grade, b: directly sowed rice plant: 3 (Herbicidal ratio of 40% or higher and lower than 70%)
Alopecurus myosuroides [8]
  Herbicidal effect grade, J: Alopecurus myosuroides: 5 (Herbicidal ratio of 90% or more (almost completely withered))
[9]
  A (Echinochloa oryzacola Vasing.) herbicidal effect grade: 5 (Herbicidal ratio of 90% or more (almost completely withered))
Avena fatua
  I: Avena fatua, herbicidal effect grade: 4 (Herbicidal ratio of 70% or higher and lower than 90%)
Alopecurus myosuroides [10]
  J: Alopecurus myosuroides, herbicidal effect grade: 5 (Herbicidal ratio of 90% or more (almost completely withered))
Soybean [11]
  d: soybean, effect on crop grade: 1 (Herbicidal ratio of 5% or higher and lower than 20%)
Galium spurium
  Herbicidal effect grade, Q: Galium spurium: 0 (Herbicidal ratio of 5% or lower (almost no effect))
